Results reported in patent publication US20190358181A1, “METHODS FOR AUTISM SPECTRUM DISORDER PHARMACOTHERAPY” (priority 2017, published 2019).

Test system: 610 metabolites from 63 biochemical pathways
Assay: Targeted broad-spectrum plasma metabolomic analysis (LC-MS/MS), paired pre-infusion vs post-infusion (2-days and 6-weeks)
Assay type: in vivo, human
Conditions: plasma, 2-days after infusion vs pre-infusion
Protocol: Targeted, broad-spectrum, plasma metabolomic analysis of 610 metabolites from 63 biochemical pathways was performed by high performance liquid chromatography and tandem mass spectrometry (LC-MS/MS) on the samples collected from patients in Example 1. Venous blood was collected between the hours of 8 am and 5 pm, at least 3 hours after the last meal, into lithium-heparin vacutainer tubes (BD #367884). Plasma was separated by centrifugation at 900 g×10 minutes at room temperature within one hour of collection. The resulting fresh lithium-heparin plasma was transferred to labeled 1.2 ml or 2.0 ml externally threaded cryotubes with a minimum headspace air gap for storage at −80° C. for analysis. Samples were analyzed on an AB SCIEX QTRAP 5500 triple quadrupole mass spectrometer equipped with a Turbo V electrospray ionization (ESI) source, Shimadzu LC-20A UHPLC system, and a PAL CTC autosampler. Typically, 90 μl of plasma was thawed on ice and transferred to a 1.7 ml Eppendorf tube. Five (5.0) μl of a cocktail containing 25-35 commercial stable isotope internal standards, and 5.0 μl of 57 stable isotope internal standards that were custom-synthesized in E. coli NCM3722, Caenorhabditis elegans N2, and Komagataella phaffii (ATCC 76273; formerly known as Pichia pastoris) by metabolic labeling with 13C-glucose and 13C-bicarbonate, were added, mixed, and incubated for 10 min at 20° C. to permit small molecules and vitamins in the internal standards to associate with plasma binding proteins. Macromolecules (protein, DNA, RNA, glycans, etc.) were precipitated by extraction with 4 volumes (400 μl) of cold (−20° C.), acetonitrile:methanol (50:50) (LCMS grade, Cat #LC015-2.5 and GC230-4, Burdick & Jackson, Honeywell), vortexed vigorously, and incubated on crushed ice for 10 min, then removed by centrifugation at 16,000 g×10 min at 4° C. The supernatants containing the extracted metabolites and internal standards in the resulting 40:40:20 solvent mix of acetonitrile:methanol:water were transferred to labeled cryotubes and stored at −80° C. for LCMS/MS analysis.
LC-MS/MS analysis was performed by scheduled multiple reaction monitoring (sMRM) under Analyst v1.6.2 software control in both negative and positive mode with rapid polarity switching (50 ms). Nitrogen was used for curtain gas (set to 30), collision gas (set to high), ion source gas 1 and 2 (set to 35). The source temperature was 500° C. Spray voltage was set to −4500 V in negative mode and 5500 V in positive mode. The values for Q1 and Q3 mass-to-charge ratios (m/z), declustering potential (DP), entrance potential (EP), collision energy (CE), and collision cell exit potential (CXP) were determined and optimized for each MRM for each metabolite. Ten microliters of extract was injected by PAL CTC autosampler via a 10 μl stainless steel loop into a 250 mm×2.0 mm, 4 μm polymer based NH2 HPLC column (Asahipak NH2P-40 2E, Showa Denko America, Inc., NY) held at 25° C. for chromatographic separation. The mobile phase was solvent A: 95% water with 20 mM (NH4)2CO3 (Sigma, Fluka Cat #74415-250G-F), 5% acetonitrile, and 38 mM NH4OH (Sigma, Fluka Cat #17837-100ML), final pH 9.75; solvent B: 100% acetonitrile. Separation was achieved using the following gradient: 0-3.5 min: 95% B, 3.6-8 min: 85% B, 8.1-13 min: 75% B, 13.5-35 min: 0% B, 36-46 min: 95% B, 46.1 min: end. The flow rate was 200 μl/min. Pump pressures ranged from 920-2600 psi over the course of the gradient. All the samples were kept at 4° C. during analysis. The chromatographic peaks were identified using MultiQuant (v3.0, Sciex), confirmed by manual inspection, and the peak areas integrated. […]

[1] = Cholesterol, Cortisol, Non-Gonadal Steroid Metabolism
[2] = Eicosanoid and Resolvin Metabolism
[3] = Fatty Acid Oxidation and Synthesis
[4] = GABA, Glutamate, Arginine, Ornithine, Proline Metabolism
[5] = Gamma-Glutamyl and other Dipeptides
[6] = Glycolysis and Gluconeogenesis Metabolism
[7] = Histidine, Histamine, Carnosine Metabolism
[8] = Nitric Oxide, Superoxide, Peroxide Metabolism

SMILES: Cc1ccc(C(=O)Nc2ccc(S(=O)(=O)O)c3cc(S(=O)(=O)O)cc(S(=O)(=O)O)c23)cc1NC(=O)c1cccc(NC(=O)Nc2cccc(C(=O)Nc3cc(C(=O)Nc4ccc(S(=O)(=O)O)c5cc(S(=O)(=O)O)cc(S(=O)(=O)O)c45)ccc3C)c2)c1 [Suramin, suramin]
- Z Abs, Ceramide(d18:1/18:2) (Ceramide Metabolism): 0.530
- Z Score, Ceramide(d18:1/18:2) (Ceramide Metabolism): 0.530
- Linear Ratio, 24,25-Epoxycholesterol [1]: 1.362
- VIP Score, 24,25-Epoxycholesterol [1]: 1.807
- Z Abs, 24,25-Epoxycholesterol [1]: 1.014
- Z Score, 24,25-Epoxycholesterol [1]: 1.014
- Linear Ratio, 5-HETE [2]: 0.866
- Linear Ratio, 11(R)-HETE [2]: 0.748
- Linear Ratio, 11,12-Epoxyeicosatrienoic acid [2]: 0.828
- Linear Ratio, Prostaglandin J2 [2]: 0.649
- VIP Score, 5-HETE [2]: 1.646
- VIP Score, 11(R)-HETE [2]: 2.400
- VIP Score, 11,12-Epoxyeicosatrienoic acid [2]: 1.535
- VIP Score, Prostaglandin J2 [2]: 1.509
- Z Abs, 5-HETE [2]: 0.671
- Z Abs, 11(R)-HETE [2]: 0.875
- Z Abs, 11,12-Epoxyeicosatrienoic acid [2]: 0.634
- Z Abs, Prostaglandin J2 [2]: 0.601
- Z Score, 5-HETE [2]: −0.671
- Z Score, 11(R)-HETE [2]: −0.875
- Z Score, 11,12-Epoxyeicosatrienoic acid [2]: −0.634
- Z Score, Prostaglandin J2 [2]: −0.601
- Linear Ratio, Anandamide (Endocannabinoid Metabolism): 0.684
- VIP Score, Anandamide (Endocannabinoid Metabolism): 1.713
- Z Abs, Anandamide (Endocannabinoid Metabolism): 0.709
- Z Score, Anandamide (Endocannabinoid Metabolism): −0.709
- Linear Ratio, Malonic acid [3]: 0.904
- VIP Score, Malonic acid [3]: 1.833
- Z Abs, Malonic acid [3]: 0.825
- Z Score, Malonic acid [3]: −0.825
- Linear Ratio, Gamma-Aminobutyric acid [4]: 1.068
- Linear Ratio, L-Proline [4]: 1.155
- Linear Ratio, N-Acetylglutamic acid [4]: 1.120
- VIP Score, Gamma-Aminobutyric acid [4]: 1.626
- VIP Score, L-Proline [4]: 1.548
- VIP Score, N-Acetylglutamic acid [4]: 1.505
- Z Abs, Gamma-Aminobutyric acid [4]: 1.101
- Z Abs, L-Proline [4]: 0.603
- Z Abs, N-Acetylglutamic acid [4]: 0.613
- Z Score, Gamma-Aminobutyric acid [4]: 1.101
- Z Score, L-Proline [4]: 0.603
- Z Score, N-Acetylglutamic acid [4]: 0.613
- Linear Ratio, Gamma-glutamyl-Alanine [5]: 1.294
- Linear Ratio, Glycylproline [5]: 1.773
- VIP Score, Gamma-glutamyl-Alanine [5]: 1.575
- VIP Score, Glycylproline [5]: 2.205
- Z Abs, Gamma-glutamyl-Alanine [5]: 0.896
- Z Abs, Glycylproline [5]: 1.212
- Z Score, Gamma-glutamyl-Alanine [5]: 0.896
- Z Score, Glycylproline [5]: 1.212
- Linear Ratio, 2,3-Diphosphoglyceric acid [6]: 1.198
- Linear Ratio, Glycerol 3-phosphate [6]: 1.187
- VIP Score, 2,3-Diphosphoglyceric acid [6]: 2.600
- VIP Score, Glycerol 3-phosphate [6]: 1.651
- Z Abs, 2,3-Diphosphoglyceric acid [6]: 0.990
- Z Abs, Glycerol 3-phosphate [6]: 1.151
- Z Score, 2,3-Diphosphoglyceric acid [6]: 0.990
- Z Score, Glycerol 3-phosphate [6]: 1.151
- Linear Ratio, GC(18:1/22:0) (Glycosphingolipid Metabolism): 1.399
- VIP Score, GC(18:1/22:0) (Glycosphingolipid Metabolism): 2.123
- Z Abs, GC(18:1/22:0) (Glycosphingolipid Metabolism): 1.057
- Z Score, GC(18:1/22:0) (Glycosphingolipid Metabolism): 1.057
- Linear Ratio, 1-Methylhistidine [7]: 1.145
- VIP Score, 1-Methylhistidine [7]: 1.848
- Z Abs, 1-Methylhistidine [7]: 0.899
- Z Score, 1-Methylhistidine [7]: 0.899
- Linear Ratio, Citramalic acid (Krebs Cycle): 1.121
- Linear Ratio, Citric acid (Krebs Cycle): 1.142
- VIP Score, Citramalic acid (Krebs Cycle): 1.704
- VIP Score, Citric acid (Krebs Cycle): 1.590
- Z Abs, Citramalic acid (Krebs Cycle): 1.229
- Z Abs, Citric acid (Krebs Cycle): 0.759
- Z Score, Citramalic acid (Krebs Cycle): 1.229
- Z Score, Citric acid (Krebs Cycle): 0.759
- Linear Ratio, 2-Keto-L-gluconate (Microbiome Metabolism): 1.264
- Linear Ratio, Indoxyl sulfate (Microbiome Metabolism): 1.280
- Linear Ratio, Shikimate-3-phosphate (Microbiome Metabolism): 1.047
- Linear Ratio, p-Hydroxyphenylacetic acid (Microbiome Metabolism): 1.192
- VIP Score, 2-Keto-L-gluconate (Microbiome Metabolism): 2.994
- VIP Score, Indoxyl sulfate (Microbiome Metabolism): 1.858
- VIP Score, Shikimate-3-phosphate (Microbiome Metabolism): 1.886
- VIP Score, p-Hydroxyphenylacetic acid (Microbiome Metabolism): 2.546
- Z Abs, 2-Keto-L-gluconate (Microbiome Metabolism): 2.586
- Z Abs, Indoxyl sulfate (Microbiome Metabolism): 0.702
- Z Abs, Shikimate-3-phosphate (Microbiome Metabolism): 1.033
- Z Abs, p-Hydroxyphenylacetic acid (Microbiome Metabolism): 1.464
- Z Score, 2-Keto-L-gluconate (Microbiome Metabolism): 2.586
- Z Score, Indoxyl sulfate (Microbiome Metabolism): 0.702
- Z Score, Shikimate-3-phosphate (Microbiome Metabolism): 1.033
- Z Score, p-Hydroxyphenylacetic acid (Microbiome Metabolism): 1.464
- Linear Ratio, Azelaic acid [8]: 0.914
- VIP Score, Azelaic acid [8]: 1.929
- Z Abs, Azelaic acid [8]: 2.024
